# Source: publication PMC9482650, “Quantitative fragmentomics allow affinity mapping of interactomes” (Nature Communications, 2022)
# Read-outs that look alike come from different tables or passages of the source. Ends that are not written are not given here.
# What was measured:
# Assay type in all cases: binding
# DLG3_1 PDZ = target: T1, DLG3_1 PDZ (Homo sapiens, UniProt Q92796); experiment: Holdup assay
# T1 sequence (Q92796 130-217 limits assumed): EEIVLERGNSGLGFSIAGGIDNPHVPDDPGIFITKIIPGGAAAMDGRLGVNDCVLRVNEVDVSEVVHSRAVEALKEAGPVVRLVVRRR
# MAGI2_3 PDZ = MAGI2_3 PDZ (Homo sapiens, UniProt Q86UL8); experiment: Holdup assay
# FRMPD2_1 PDZ = FRMPD2_1 PDZ (Homo sapiens, UniProt Q68DX3); experiment: Holdup assay
# CNKSR3 PDZ = CNKSR3 PDZ (Homo sapiens, UniProt Q6P9H4); experiment: Holdup assay
# From the text: Supplement 41467_2022_33018_MOESM4_ESM.xlsx, sheet "PPI_convert" | column: CNKSR3
# GIPC1 PDZ = GIPC1 PDZ (Homo sapiens, UniProt O14908); experiment: Holdup assay
# From the text: Supplement 41467_2022_33018_MOESM4_ESM.xlsx, sheet "PPI_convert" | column: GIPC1
# LIN7A PDZ = LIN7A PDZ (Homo sapiens, UniProt O14910); experiment: Holdup assay
# PDZRN3_1 PDZ = target: T2, PDZRN3_1 PDZ (Homo sapiens, UniProt Q9UPQ7); experiment: Holdup assay
# T2 sequence (Q9UPQ7 249-339 limits assumed): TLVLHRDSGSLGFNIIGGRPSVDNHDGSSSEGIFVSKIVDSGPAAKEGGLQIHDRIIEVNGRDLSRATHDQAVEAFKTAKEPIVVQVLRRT
# LIN7C PDZ = target: T3, LIN7C PDZ (Homo sapiens, UniProt Q9NUP9); experiment: Holdup assay
# T3 sequence (Q9NUP9 93-175 limits assumed): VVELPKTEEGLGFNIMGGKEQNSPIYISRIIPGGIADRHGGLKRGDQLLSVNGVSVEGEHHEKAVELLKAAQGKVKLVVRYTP
# SCRIB_3 PDZ = target: T4, SCRIB_3 PDZ (Homo sapiens, UniProt Q14160); experiment: Holdup assay
# T4 sequence (Q14160 1004-1093 limits assumed): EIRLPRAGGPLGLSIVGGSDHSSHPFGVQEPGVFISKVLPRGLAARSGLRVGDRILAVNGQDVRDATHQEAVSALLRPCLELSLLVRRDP
# MAGI2_4 PDZ = MAGI2_4 PDZ (Homo sapiens, UniProt Q86UL8); experiment: Holdup assay
# Inadl_8 PDZ = Inadl_8 PDZ (Homo sapiens, UniProt Q8NI35); experiment: Holdup assay
# DLG1_2 PDZ = DLG1_2 PDZ (Homo sapiens, UniProt Q12959); experiment: Holdup assay
# LRRC7 PDZ = LRRC7 PDZ (Homo sapiens, UniProt Q96NW7); experiment: Holdup assay
# MAGI3_2 PDZ = MAGI3_2 PDZ (Homo sapiens, UniProt Q5TCQ9); experiment: Holdup assay
# SNTG1 PDZ = target: T5, SNTG1 PDZ (Homo sapiens, UniProt Q9NSN8); experiment: Holdup assay
# T5 sequence (Q9NSN8 57-140 limits assumed): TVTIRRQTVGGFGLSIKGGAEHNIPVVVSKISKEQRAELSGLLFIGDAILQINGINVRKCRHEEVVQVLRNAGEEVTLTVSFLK
# RHPN1 PDZ = RHPN1 PDZ (Homo sapiens, UniProt Q8TCX5); experiment: Holdup assay
# TJP2_1 PDZ = TJP2_1 PDZ (Homo sapiens, UniProt Q9UDY2); experiment: Holdup assay
# DLG2_3 PDZ = target: T6, DLG2_3 PDZ (Homo sapiens, UniProt Q15700); experiment: Holdup assay
# T6 sequence (Q15700 421-501 limits assumed): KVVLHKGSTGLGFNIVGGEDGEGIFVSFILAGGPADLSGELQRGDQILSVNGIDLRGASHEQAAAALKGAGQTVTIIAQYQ
# LNX1_4 PDZ = LNX1_4 PDZ (Homo sapiens, UniProt Q8TBB1); experiment: Holdup assay
# MAGI1_2 PDZ = MAGI1_2 PDZ (Homo sapiens, UniProt Q96QZ7); experiment: biochemical
# MAGI2_2 PDZ = MAGI2_2 PDZ (Homo sapiens, UniProt Q86UL8); experiment: Holdup assay
# SCRIB_1 PDZ = SCRIB_1 PDZ (Homo sapiens, UniProt Q14160); experiment: Holdup assay
# MAST1 PDZ = MAST1 PDZ (Homo sapiens, UniProt Q9Y2H9); experiment: Holdup assay
# DLG3_3 PDZ = target: T7, DLG3_3 PDZ (Homo sapiens, UniProt Q92796); experiment: Holdup assay
# T7 sequence (Q92796 379-465 limits assumed): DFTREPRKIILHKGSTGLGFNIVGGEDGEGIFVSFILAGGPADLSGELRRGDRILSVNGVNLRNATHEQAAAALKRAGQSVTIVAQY
# DLG2_1 PDZ = DLG2_1 PDZ (Homo sapiens, UniProt Q15700); experiment: Holdup assay
# ARHGEF12 PDZ = target: T8, ARHGEF12 PDZ (Homo sapiens, UniProt Q9NZN5); experiment: Holdup assay
# T8 sequence (Q9NZN5 72-151 limits assumed): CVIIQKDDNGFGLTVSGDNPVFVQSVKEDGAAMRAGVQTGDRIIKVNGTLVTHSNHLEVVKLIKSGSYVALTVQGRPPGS
# MAGI3_4 PDZ = MAGI3_4 PDZ (Homo sapiens, UniProt Q5TCQ9); experiment: Holdup assay; settings: sheet PPI_convert; read-out: affinity to PDZ MAGI3_4 (converted)
# DLG5_4 PDZ = DLG5_4 PDZ (Homo sapiens, UniProt Q8TDM6); experiment: Holdup assay; settings: sheet PPI_convert; read-out: affinity to PDZ DLG5_4 (converted)
# PDZRN3_2 PDZ = PDZRN3_2 PDZ (Homo sapiens, UniProt Q9UPQ7); experiment: Holdup assay; settings: sheet PPI_convert; read-out: affinity to PDZ PDZRN3_2 (converted)
# PDZD2_5 PDZ = PDZD2_5 PDZ (Homo sapiens, UniProt O15018); experiment: Holdup assay; settings: sheet PPI_convert; read-out: affinity to PDZ PDZD2_5 (converted)
# [1] = composite holdup affinity, 0.00=below quantification threshold, read-out: COMP pKd (converted)
# Sequence of MAGI1_2 PDZ (Q96QZ7 472-554 limits assumed): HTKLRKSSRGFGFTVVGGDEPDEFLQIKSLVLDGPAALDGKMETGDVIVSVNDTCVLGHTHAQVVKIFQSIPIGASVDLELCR
# Sequence of DLG1_2 PDZ (Q12959 319-405 limits assumed): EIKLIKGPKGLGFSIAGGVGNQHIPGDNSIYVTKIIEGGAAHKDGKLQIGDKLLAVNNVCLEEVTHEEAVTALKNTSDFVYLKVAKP
# Sequence of MAGI2_4 PDZ (Q86UL8 778-860 limits assumed): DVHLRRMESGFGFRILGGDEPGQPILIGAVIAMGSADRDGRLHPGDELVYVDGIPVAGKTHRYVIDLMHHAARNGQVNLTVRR
# Sequence of MAGI2_2 PDZ (Q86UL8 426-510 limits assumed): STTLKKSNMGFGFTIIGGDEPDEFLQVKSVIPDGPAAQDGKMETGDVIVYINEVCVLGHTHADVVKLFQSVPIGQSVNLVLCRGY
# Sequence of SCRIB_1 PDZ (Q14160 728-815 limits assumed): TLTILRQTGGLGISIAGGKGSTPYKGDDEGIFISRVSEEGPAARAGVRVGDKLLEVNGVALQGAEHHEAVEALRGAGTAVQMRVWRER
# Sequence of MAGI3_2 PDZ (Q5TCQ9 410-492 limits assumed): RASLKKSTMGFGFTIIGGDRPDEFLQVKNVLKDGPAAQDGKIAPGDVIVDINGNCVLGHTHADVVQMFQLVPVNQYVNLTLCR
# Sequence of MAST1 PDZ (Q9Y2H9 967-1055 limits assumed): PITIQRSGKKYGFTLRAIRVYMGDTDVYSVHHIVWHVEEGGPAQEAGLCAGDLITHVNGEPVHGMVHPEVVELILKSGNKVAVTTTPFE
# Sequence of LRRC7 PDZ (Q96NW7 1450-1535 limits assumed): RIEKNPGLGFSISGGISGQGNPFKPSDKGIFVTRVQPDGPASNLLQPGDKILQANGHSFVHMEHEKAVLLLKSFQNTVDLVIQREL
# Sequence of LNX1_4 PDZ (Q8TBB1 638-724 limits assumed): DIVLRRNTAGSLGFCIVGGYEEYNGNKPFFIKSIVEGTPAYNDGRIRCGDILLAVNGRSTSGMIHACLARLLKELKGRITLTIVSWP
# Sequence of RHPN1 PDZ (Q8TCX5 513-592 limits assumed): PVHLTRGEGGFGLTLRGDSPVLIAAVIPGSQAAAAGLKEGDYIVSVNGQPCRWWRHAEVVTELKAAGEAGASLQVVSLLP
# Sequence of DLG2_1 PDZ (Q15700 98-184): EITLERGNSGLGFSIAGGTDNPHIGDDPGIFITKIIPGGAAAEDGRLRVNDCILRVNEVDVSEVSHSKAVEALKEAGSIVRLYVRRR
# Sequence of TJP2_1 PDZ (Q9UDY2 33-120 limits assumed): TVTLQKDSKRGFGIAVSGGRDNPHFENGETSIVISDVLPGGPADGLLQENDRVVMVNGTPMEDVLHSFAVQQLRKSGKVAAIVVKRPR
# Sequence of MAGI2_3 PDZ (Q86UL8 605-683 limits assumed): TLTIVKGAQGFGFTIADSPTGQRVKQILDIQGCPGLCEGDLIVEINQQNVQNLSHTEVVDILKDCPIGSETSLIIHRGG
# Sequence of GIPC1 PDZ (O14908 133-213 limits assumed): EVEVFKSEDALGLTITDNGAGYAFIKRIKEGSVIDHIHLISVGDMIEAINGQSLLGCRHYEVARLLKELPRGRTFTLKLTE
# Sequence of LIN7A PDZ (O14910 108-190 limits assumed): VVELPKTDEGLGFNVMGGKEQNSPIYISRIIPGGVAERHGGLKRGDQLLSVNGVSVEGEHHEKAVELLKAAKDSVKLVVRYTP
# Sequence of FRMPD2_1 PDZ (Q68DX3 775-861 limits assumed): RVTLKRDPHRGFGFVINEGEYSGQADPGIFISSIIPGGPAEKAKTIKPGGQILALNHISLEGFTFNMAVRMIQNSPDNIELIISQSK
# Sequence of CNKSR3 PDZ (Q6P9H4 211-293 limits assumed): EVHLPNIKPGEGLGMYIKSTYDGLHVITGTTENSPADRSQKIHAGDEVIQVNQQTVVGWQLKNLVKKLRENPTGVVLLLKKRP
# Sequence of PDZD2_5 PDZ (O15018 2622-2706 limits assumed): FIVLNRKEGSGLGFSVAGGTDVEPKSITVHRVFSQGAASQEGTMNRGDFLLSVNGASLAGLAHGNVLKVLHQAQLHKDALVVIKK
# Sequence of PDZRN3_2 PDZ (Q9UPQ7 419-503 limits assumed): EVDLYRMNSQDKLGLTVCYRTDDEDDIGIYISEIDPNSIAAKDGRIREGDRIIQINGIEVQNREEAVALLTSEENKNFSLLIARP
# Sequence of DLG5_4 PDZ (Q8TDM6 1501-1582 limits assumed): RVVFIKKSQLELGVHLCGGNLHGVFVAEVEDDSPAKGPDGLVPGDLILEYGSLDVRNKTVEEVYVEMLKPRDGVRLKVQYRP
# Sequence of Inadl_8 PDZ (Q8NI35 1437-1520 limits assumed): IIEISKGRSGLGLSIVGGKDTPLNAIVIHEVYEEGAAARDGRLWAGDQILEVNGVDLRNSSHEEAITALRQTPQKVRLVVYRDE
# Sequence of MAGI3_4 PDZ (Q5TCQ9 726-808 limits assumed): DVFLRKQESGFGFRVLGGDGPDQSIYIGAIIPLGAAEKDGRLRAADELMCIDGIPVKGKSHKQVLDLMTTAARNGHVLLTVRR
molecule,measurement,setting,value
CC(C)C[C@H](NC(=O)[C@@H](N)CCCNC(=N)N)C(=O)N[C@@H](CCC(N)=O)C(=O)N[C@@H](CCCNC(=N)N)C(=O)N[C@@H](CCCNC(=N)N)C(=O)N[C@@H](CCCNC(=N)N)C(=O)N[C@@H](CCC(=O)O)C(=O)N[C@H](C(=O)N[C@@H](CCC(N)=O)C(=O)N[C@H](C(=O)O)C(C)C)[C@@H](C)O [HPV18-E6],Kd,DLG3_1 PDZ,45.7 µM
same,Kd,MAGI2_3 PDZ,70.8 µM
same,Kd,FRMPD2_1 PDZ,79.4 µM
same,Kd,CNKSR3 PDZ,79.4 µM
same,Kd,GIPC1 PDZ,36.3 µM
same,Kd,LIN7A PDZ,398 µM
same,Kd,PDZRN3_1 PDZ,15.1 µM
same,Kd,LIN7C PDZ,67.6 µM
same,Kd,SCRIB_3 PDZ,14.5 µM
same,Kd,MAGI2_4 PDZ,52.5 µM
same,Kd,Inadl_8 PDZ,479 µM
same,Kd,DLG1_2 PDZ,1.66 µM
same,Kd,LRRC7 PDZ,724 µM
same,Kd,MAGI3_2 PDZ,2.75 µM
same,Kd,SNTG1 PDZ,117 µM
same,Kd,RHPN1 PDZ,234 µM
same,Kd,TJP2_1 PDZ,129 µM
same,Kd,DLG2_3 PDZ,8.71 µM
same,Kd,LNX1_4 PDZ,93.3 µM
same,Kd,MAGI1_2 PDZ,1.07 µM
same,Kd,MAGI2_2 PDZ,6.92 µM
same,Kd,SCRIB_1 PDZ,55 µM
same,Kd,MAST1 PDZ,4.68 µM
same,Kd,DLG3_3 PDZ,3.63 µM
same,Kd,DLG2_1 PDZ,7.76 µM
same,Kd,ARHGEF12 PDZ,123 µM
SRRPRTETQV [HPV31-E6],Kd,DLG3_1 PDZ; [1],36.3 µM
same,Kd,MAGI2_3 PDZ; [1],79.4 µM
same,Kd,LIN7A PDZ; [1],309 µM
same,Kd,PDZRN3_1 PDZ; [1],81.3 µM
same,Kd,LIN7C PDZ; [1],117 µM
same,Kd,SCRIB_3 PDZ; [1],27.5 µM
same,Kd,MAGI2_4 PDZ; [1],33.1 µM
same,Kd,DLG1_2 PDZ; [1],1.62 µM
same,Kd,MAGI3_2 PDZ; [1],1.35 µM
same,Kd,SNTG1 PDZ; [1],58.9 µM
same,Kd,RHPN1 PDZ; [1],182 µM
same,Kd,TJP2_1 PDZ; [1],219 µM
same,Kd,DLG2_3 PDZ; [1],7.94 µM
same,Kd,MAGI1_2 PDZ; [1],2.88 µM
same,Kd,MAGI2_2 PDZ; [1],0.417 µM
same,Kd,SCRIB_1 PDZ; [1],25.1 µM
same,Kd,MAST1 PDZ; [1],38 µM
same,Kd,DLG3_3 PDZ; [1],7.94 µM
same,Kd,ARHGEF12 PDZ; [1],138 µM
SKPTRRETEV [HPV35-E6],Kd,DLG3_1 PDZ; [1],35.5 µM
same,Kd,FRMPD2_1 PDZ; [1],324 µM
same,Kd,"CNKSR3 PDZ; sheet PPI_convert, read-out: affinity to PDZ CNKSR3 (converted)",269 µM
same,Kd,"GIPC1 PDZ; sheet PPI_convert, read-out: affinity to PDZ GIPC1 (converted)",20.4 µM
same,Kd,MAGI3_4 PDZ,174 µM
same,Kd,PDZRN3_1 PDZ; [1],12.9 µM
same,Kd,LIN7C PDZ; [1],174 µM
same,Kd,SCRIB_3 PDZ; [1],12.9 µM
same,Kd,MAGI2_4 PDZ; [1],45.7 µM
same,Kd,DLG1_2 PDZ; [1],2.29 µM
same,Kd,LRRC7 PDZ; [1],257 µM
same,Kd,MAGI3_2 PDZ; [1],4.07 µM
same,Kd,SNTG1 PDZ; [1],49 µM
same,Kd,DLG5_4 PDZ,219 µM
same,Kd,DLG2_3 PDZ; [1],4.9 µM
same,Kd,"LNX1_4 PDZ; sheet PPI_convert, read-out: affinity to PDZ LNX1_4 (converted)",324 µM
same,Kd,MAGI1_2 PDZ; [1],7.41 µM
same,Kd,MAGI2_2 PDZ; [1],11.7 µM
same,Kd,SCRIB_1 PDZ; [1],27.5 µM
same,Kd,PDZRN3_2 PDZ,269 µM
same,Kd,DLG3_3 PDZ; [1],6.61 µM
same,Kd,"DLG2_1 PDZ; sheet PPI_convert, read-out: affinity to PDZ DLG2_1 (converted)",12.3 µM
same,Kd,PDZD2_5 PDZ,170 µM
same,Kd,ARHGEF12 PDZ; [1],87.1 µM
